Experimental data as given in patent US8497276B2, “Substituted indolo-piperidine compounds” (ArQule, Inc., priority 2009, dated 2013).

Columns and labels:
[1] = molecular target: T1, Tec kinase (Homo sapiens, UniProt P42680); assay: Tec Kinase Activity Assay; format: biochemical; details: 75 μM ATP, Pyk-2 substrate; compound concentration not given
T1 sequence (P42680 1-631): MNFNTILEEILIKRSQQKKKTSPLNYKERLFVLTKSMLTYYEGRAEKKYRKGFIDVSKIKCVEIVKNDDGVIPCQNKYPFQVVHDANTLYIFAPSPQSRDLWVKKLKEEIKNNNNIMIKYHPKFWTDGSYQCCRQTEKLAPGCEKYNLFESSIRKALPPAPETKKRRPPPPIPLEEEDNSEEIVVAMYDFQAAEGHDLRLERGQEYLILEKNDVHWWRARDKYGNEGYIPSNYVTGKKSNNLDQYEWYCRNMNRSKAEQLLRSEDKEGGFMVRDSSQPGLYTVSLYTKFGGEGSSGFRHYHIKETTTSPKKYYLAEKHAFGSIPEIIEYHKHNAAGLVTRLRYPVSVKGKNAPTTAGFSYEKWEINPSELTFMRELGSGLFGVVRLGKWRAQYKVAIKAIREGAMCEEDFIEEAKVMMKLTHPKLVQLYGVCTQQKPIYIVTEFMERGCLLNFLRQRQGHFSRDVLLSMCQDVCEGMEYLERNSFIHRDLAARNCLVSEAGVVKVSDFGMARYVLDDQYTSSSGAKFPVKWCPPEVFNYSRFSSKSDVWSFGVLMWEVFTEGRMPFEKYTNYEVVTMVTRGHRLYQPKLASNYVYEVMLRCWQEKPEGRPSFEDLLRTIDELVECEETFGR
Protocol: The disclosed compounds were assayed for their ability to inhibit the activity of Tec kinase. Nunc Maxisorb plates were coated with streptavidin by overnight incubation with 100 μl per well of 1 μg/ml Streptavidin in DPBS. Prior to the start of the experiment, the plates were washed with TBST (3×200 μl) and blocked for at least 1 hour by adding 150 μl of 5% BSA/TBST. The plates were then washed with TBST (3×200 μl/well) and left dry immediately before the capture step.
The disclosed test compounds and controls (Staurosporine and Sutent) were prepared using the following assay buffer (50 mM Tris-HCl, 0.02 mg/ml BSA, 10 mM MgCl2, 0.1 mM Na3VO4, 1 mM EGTA, 75 μM ATP, 0.01% NP-40, 2 mM DTT in 10% glycerol/water) at 3× desired final concentration. 20 μl of the test compounds (or control) and 20 μl TEC (0.25 ng/μl) were rapidly added to a reaction plate. The plate was incubated for 30 minutes. 20 μl of Pyk-2 (0.5 ng/μl) was then added to the reaction plate. The plate was incubated at room temperature for two hours.
50 μl was transferred from the reaction plate to the streptavidin coated plate. The capture plate was incubated at room temperature for 30 minutes then washed with TBST 6 times. 100 μl/well of Cell Signaling anti-phospho tyrosine was added to the capture plate at a dilution of 1:3000 in 2% BSA/TBST. The plate was incubated for one hour at room temperature then washed with TBST 6 times. 100 μl/well of alkaline phosphatase tagged goat anti-mouse antibody was added to the capture plate at a dilution of 1:4000 in 2% BSA/TBST. The plate was incubated for one hour at room temperature then washed with TBST 6 times.
The fluorescent readout was initiated by the addition of 100 μl/well of Attophos reagent (6 mg/10 ml) and the reading was done on the Perkin Elmer Envision system.

[2] = test system: DLD-1; assay: MTS Assay (cell growth inhibition), DLD-1; format: cell-based; details: DLD-1 cells, 72 hours with test compound; concentration not given
Protocol: (§1) Cells were maintained at 37° C., 5% CO2 in DMEM media supplemented with 1% fetal bovine serum, penicillin/streptomycin and fungizone (Invitrogen). Cells were seeded into 96-well tissue culture plates at 3000 per well and cultured at 37° C. for 18 hours. Test compounds were dissolved and diluted to 300× in DMSO then diluted 1:40 in DMEM. Cells were incubated with test compounds for 72 hours followed by incubation with tetrazolium compound (3-(4,5-dimethylthiazol-2-yl)-5-(3-carboxymethoxyphenyl)-2-(4-sulfophenyl)-2H-tetrazolium, inner salt; MTS) and the electron coupling reagent, phenazine methosulfate (PMS) for 4 hours. […] The ability of compounds to inhibit cell growth in this assay is correlated with the reduction of dehydrogenase enzyme activity found in metabolically active cells. The measurement of the absorbance of the formazan was assessed using an ENVISION™ (Perkin Elmer) microplate reader at 492 nm. The calculated IC50 value is the concentration of the test compound that causes a 50% decrease in the absorbance.

[3] = test system: Kato III; assay: MTS Assay (cell growth inhibition), Kato III; format: cell-based; details: Kato III cells, 72 hours with test compound; concentration not given
Protocol: as §1

[4] = test system: MDA-MB 231; assay: MTS Assay (cell growth inhibition), MDA-MB 231; format: cell-based; details: MDA-MB 231 cells, 72 hours with test compound; concentration not given
Protocol: as §1

[5] = test system: NCI-H1299; assay: MTS Assay (cell growth inhibition), NCI-H1299; format: cell-based; details: NCI-H1299 cells, 72 hours with test compound; concentration not given
Protocol: as §1

[6] = test system: PACA-2; assay: MTS Assay (cell growth inhibition), PACA-2; format: cell-based; details: PACA-2 cells, 72 hours with test compound; concentration not given
Protocol: as §1

[7] = test system: PC-3; assay: MTS Assay (cell growth inhibition), PC-3; format: cell-based; details: PC-3 cells, 72 hours with test compound; concentration not given
Protocol: as §1

| Biochemical IC50 (% inhibition) Tec [1] | Structure (SMILES) | MTS cell kill data (% inhibition) DLD-1 [2] | MTS cell kill data (% inhibition) Kato III [3] | MTS cell kill data (% inhibition) MDA-MB 231 [4] | MTS cell kill data (% inhibition) NCI-H1299 [5] | MTS cell kill data (% inhibition) PACA-2 [6] | MTS cell kill data (% inhibition) PC-3 [7] |
| --- | --- | --- | --- | --- | --- | --- | --- |
| C (C = <50% inhibition) | CC(C)c1ccc(C2c3[nH]c4ccccc4c3CCN2c2ncnc3[nH]ccc23)cc1 (stereo not drawn) [Compound 18, 1-(4-isopropylphenyl)-2-(7H-pyrrolo[2,3-d]pyrimidin-4-yl)-2,3,4,9-tetrahydro-1H-beta-carboline] | A (A = 80-100% inhibition) | A (A = 80-100% inhibition) | A (A = 80-100% inhibition) | A (A = 80-100% inhibition) | A (A = 80-100% inhibition) | C (C = <50% inhibition) |
| C (C = <50% inhibition) | CC(C)c1ccc(C2c3[nH]c4ccccc4c3CCN2c2ncnc3[nH]cnc23)cc1 (stereo not drawn) [Compound 19, 1-(4-isopropylphenyl)-2-(9H-purin-6-yl)-2,3,4,9-tetrahydro-1H-beta-carboline] | C (C = <50% inhibition) | C (C = <50% inhibition) | C (C = <50% inhibition) | C (C = <50% inhibition) | C (C = <50% inhibition) | C (C = <50% inhibition) |
| C (C = <50% inhibition) | CC(C)c1ccc(C2c3[nH]c4ccccc4c3CCN2c2nc(N)nc3[nH]cnc23)cc1 (stereo not drawn) [Compound 20, 6-[1-(4-isopropylphenyl)-1,3,4,9-tetrahydro-2H-beta-carbolin-2-yl]-9H-purin-2-amine] | A (A = 80-100% inhibition) | A (A = 80-100% inhibition) | B (B = 50-79% inhibition) | A (A = 80-100% inhibition) | B (B = 50-79% inhibition) | C (C = <50% inhibition) |

Continued, compound first:

| Structure (SMILES) | Biochemical IC50 (% inhibition) Tec [1] | MTS cell kill data (% inhibition) DLD-1 [2] | MTS cell kill data (% inhibition) Kato III [3] | MTS cell kill data (% inhibition) MDA-MB 231 [4] | MTS cell kill data (% inhibition) NCI-H1299 [5] | MTS cell kill data (% inhibition) PACA-2 [6] | MTS cell kill data (% inhibition) PC-3 [7] |
| --- | --- | --- | --- | --- | --- | --- | --- |
| Cc1cccc(C2c3[nH]c4ccccc4c3CCN2c2ncnc3[nH]cnc23)c1 (stereo not drawn) [Compound 11, 1-(3-methylphenyl)-2-(9H-purin-6-yl)-2,3,4,9-tetrahydro-1H-beta-carboline] | C (C = <50% inhibition) | A (A = 80-100% inhibition) | A (A = 80-100% inhibition) | B (B = 50-79% inhibition) | A (A = 80-100% inhibition) | B (B = 50-79% inhibition) | C (C = <50% inhibition) |
| Cc1cccc(C2c3[nH]c4ccccc4c3CCN2c2ncnc3[nH]ncc23)c1 (stereo not drawn) [Compound 12, 1-(3-methylphenyl)-2-(1H-pyrazolo[3,4-d]pyrimidin-4-yl)-2,3,4,9-tetrahydro-1H-beta-carboline] | B (B = 50-79% inhibition) | B (B = 50-79% inhibition) | A (A = 80-100% inhibition) | B (B = 50-79% inhibition) | B (B = 50-79% inhibition) | C (C = <50% inhibition) | C (C = <50% inhibition) |
| Clc1ccccc1C1c2[nH]c3ccccc3c2CCN1c1ncnc2[nH]cnc12 (stereo not drawn) [Compound 13, 1-(2-chlorophenyl)-2-(9H-purin-6-yl)-2,3,4,9-tetrahydro-1H-beta-carboline] | B (B = 50-79% inhibition) | C (C = <50% inhibition) | C (C = <50% inhibition) | C (C = <50% inhibition) | B (B = 50-79% inhibition) | C (C = <50% inhibition) | C (C = <50% inhibition) |
| c1ccc(CC2c3[nH]c4ccccc4c3CCN2c2ncnc3[nH]ccc23)cc1 (stereo not drawn) [Compound 14, 1-benzyl-2-(7H-pyrrolo[2,3-d]pyrimidin-4-yl)-2,3,4,9-tetrahydro-1H-beta-carboline] | C (C = <50% inhibition) | B (B = 50-79% inhibition) | A (A = 80-100% inhibition) | A (A = 80-100% inhibition) | A (A = 80-100% inhibition) | B (B = 50-79% inhibition) | A (A = 80-100% inhibition) |
| c1ccc(CC2c3[nH]c4ccccc4c3CCN2c2ncnc3[nH]cnc23)cc1 (stereo not drawn) [Compound 15, 1-benzyl-2-(9H-purin-6-yl)-2,3,4,9-tetrahydro-1H-beta-carboline] | C (C = <50% inhibition) | B (B = 50-79% inhibition) | B (B = 50-79% inhibition) | A (A = 80-100% inhibition) | A (A = 80-100% inhibition) | C (C = <50% inhibition) | A (A = 80-100% inhibition) |
| Nc1nc(N2CCc3c([nH]c4ccccc34)C2Cc2ccccc2)c2nc[nH]c2n1 (stereo not drawn) [Compound 16, 6-(1-benzyl-1,3,4,9-tetrahydro-2H-beta-carbolin-2-yl)-9H-purin-2-amine] | C (C = <50% inhibition) | C (C = <50% inhibition) | C (C = <50% inhibition) | C (C = <50% inhibition) | C (C = <50% inhibition) | C (C = <50% inhibition) | C (C = <50% inhibition) |
| c1ccc(CC2c3[nH]c4ccccc4c3CCN2c2ncnc3[nH]ncc23)cc1 (stereo not drawn) [Compound 17, 1-benzyl-2-(1H-pyrazolo[3,4-d]pyrimidin-4-yl)-2,3,4,9-tetrahydro-1H-beta-carboline] | C (C = <50% inhibition) | B (B = 50-79% inhibition) | B (B = 50-79% inhibition) | C (C = <50% inhibition) | B (B = 50-79% inhibition) | B (B = 50-79% inhibition) | C (C = <50% inhibition) |
